Assay results as given in the NIST ThermoML archive (doi:10.1021/je0501843).
Where “and” joins values, the source holds several entries; their conditions need not be identical. Equal entries are not always repeated.

Assay: molar heat capacity at constant volume
Conditions: Fluid (supercritical or subcritical phases), Vacuum adiabatic calorimetry

FC(F)C(F)(F)F [pentafluoroethane]
Conditions	molar heat capacity at constant volume
306 K, Mass density=1202.8 kg/m3	102.77 J/K/mol
307 K, Mass density=1202.7 kg/m3	103.99 J/K/mol
308 K, Mass density=1202.5 kg/m3	103.96 J/K/mol
309 K, Mass density=1202.4 kg/m3	102.49 J/K/mol
310 K, Mass density=1202.3 kg/m3	101.48 J/K/mol
311 K, Mass density=1202.1 kg/m3	102.64 J/K/mol
312 K, Mass density=1202 kg/m3	103.21 J/K/mol
313 K, Mass density=1201.9 kg/m3	102.64 J/K/mol
314 K, Mass density=1201.7 kg/m3	103.24 J/K/mol
315 K, Mass density=1201.6 kg/m3	102.92 J/K/mol
316 K, Mass density=1201.5 kg/m3	103.09 J/K/mol
317 K, Mass density=1201.4 kg/m3	102.73 J/K/mol
318 K, Mass density=1201.2 kg/m3	102.19 J/K/mol
319 K, Mass density=1201.1 kg/m3	102.74 J/K/mol
320 K, Mass density=1201 kg/m3	102.92 J/K/mol
321 K, Mass density=1200.8 kg/m3	102.75 J/K/mol and 102.7 J/K/mol
322 K, Mass density=1079.2 kg/m3	106.18 J/K/mol and 102.47 J/K/mol
322 K, Mass density=1200.7 kg/m3	102.47 J/K/mol and 101.89 J/K/mol
323 K, Mass density=1079.1 kg/m3	105.94 J/K/mol and 104.02 J/K/mol
323 K, Mass density=1200.6 kg/m3	102.89 J/K/mol and 102.1 J/K/mol
324 K, Mass density=1079 kg/m3	105.71 J/K/mol and 105.31 J/K/mol
324 K, Mass density=1200.5 kg/m3	102.77 J/K/mol and 102.45 J/K/mol
325 K, Mass density=1078.9 kg/m3	104.71 J/K/mol and 104.09 J/K/mol
325 K, Mass density=1200.3 kg/m3	102.83 J/K/mol and 102.31 J/K/mol
326 K, Mass density=1078.8 kg/m3	103.25 J/K/mol and 103.34 J/K/mol
326 K, Mass density=1200.2 kg/m3	102.63 J/K/mol and 102.1 J/K/mol
327 K, Mass density=1078.7 kg/m3	104.31 J/K/mol
327 K, Mass density=1200.1 kg/m3	102.65 J/K/mol and 102.35 J/K/mol
328 K, Mass density=1078.6 kg/m3	105.03 J/K/mol and 104.85 J/K/mol
328 K, Mass density=1199.9 kg/m3	102.89 J/K/mol
328 K, Mass density=1200 kg/m3	103.64 J/K/mol
329 K, Mass density=1078.5 kg/m3	104.79 J/K/mol and 104.41 J/K/mol
329 K, Mass density=1199.8 kg/m3	102.81 J/K/mol and 102.69 J/K/mol
330 K, Mass density=1078.4 kg/m3	105.01 J/K/mol and 104.07 J/K/mol
330 K, Mass density=1199.7 kg/m3	103.09 J/K/mol
331 K, Mass density=1078.3 kg/m3	104.36 J/K/mol and 104.2 J/K/mol
331 K, Mass density=1199.6 kg/m3	102.64 J/K/mol
332 K, Mass density=976.3 kg/m3	110.56 J/K/mol and 112.17 J/K/mol
332 K, Mass density=1078.2 kg/m3	104.98 J/K/mol and 105.47 J/K/mol
332 K, Mass density=1199.4 kg/m3	103.45 J/K/mol
333 K, Mass density=976.2 kg/m3	107.88 J/K/mol and 109.12 J/K/mol
333 K, Mass density=1078.1 kg/m3	105.77 J/K/mol and 104.87 J/K/mol
333 K, Mass density=1199.3 kg/m3	103.83 J/K/mol
334 K, Mass density=976.2 kg/m3	105.25 J/K/mol and 107.12 J/K/mol
334 K, Mass density=1078 kg/m3	104.98 J/K/mol and 103.53 J/K/mol
334 K, Mass density=1199.2 kg/m3	103.39 J/K/mol
335 K, Mass density=976.1 kg/m3	106.11 J/K/mol and 106.99 J/K/mol
335 K, Mass density=1077.9 kg/m3	104.43 J/K/mol and 103.57 J/K/mol
335 K, Mass density=1199.1 kg/m3	102.85 J/K/mol
336 K, Mass density=976 kg/m3	107.32 J/K/mol and 107.23 J/K/mol
336 K, Mass density=1077.8 kg/m3	104.74 J/K/mol and 104.05 J/K/mol
336 K, Mass density=1198.9 kg/m3	102.26 J/K/mol
337 K, Mass density=975.9 kg/m3	107.6 J/K/mol and 108.43 J/K/mol
337 K, Mass density=1077.7 kg/m3	105.57 J/K/mol and 105.69 J/K/mol
337 K, Mass density=1198.8 kg/m3	103.71 J/K/mol
338 K, Mass density=975.9 kg/m3	107.08 J/K/mol and 107.59 J/K/mol
338 K, Mass density=1077.6 kg/m3	104.15 J/K/mol and 105.09 J/K/mol
338 K, Mass density=1198.7 kg/m3	104.23 J/K/mol
339 K, Mass density=883.4 kg/m3	114.19 J/K/mol
339 K, Mass density=975.8 kg/m3	106.21 J/K/mol and 106.6 J/K/mol
339 K, Mass density=1077.5 kg/m3	103.97 J/K/mol and 103.59 J/K/mol
339 K, Mass density=1198.5 kg/m3	104 J/K/mol
340 K, Mass density=883.3 kg/m3	112.9 J/K/mol
340 K, Mass density=975.7 kg/m3	106.54 J/K/mol and 107.42 J/K/mol
340 K, Mass density=1077.4 kg/m3	104.49 J/K/mol and 105.35 J/K/mol
341 K, Mass density=883.3 kg/m3	112.1 J/K/mol
341 K, Mass density=975.6 kg/m3	107.88 J/K/mol and 107.61 J/K/mol
341 K, Mass density=1077.3 kg/m3	105.62 J/K/mol and 105.16 J/K/mol
342 K, Mass density=883.2 kg/m3	111.03 J/K/mol
342 K, Mass density=975.6 kg/m3	107 J/K/mol
342 K, Mass density=1077.2 kg/m3	104.92 J/K/mol and 104.79 J/K/mol
343 K, Mass density=502.9 kg/m3	134.81 J/K/mol
343 K, Mass density=883.1 kg/m3	110.42 J/K/mol
343 K, Mass density=975.5 kg/m3	106.86 J/K/mol
343 K, Mass density=1077.1 kg/m3	104.17 J/K/mol and 104.84 J/K/mol
344 K, Mass density=502.9 kg/m3	132.16 J/K/mol
344 K, Mass density=585.8 kg/m3	125.97 J/K/mol
344 K, Mass density=883.1 kg/m3	111.3 J/K/mol
344 K, Mass density=975.4 kg/m3	106.41 J/K/mol
344 K, Mass density=1077 kg/m3	104.75 J/K/mol and 104.6 J/K/mol
345 K, Mass density=502.9 kg/m3	126.98 J/K/mol
345 K, Mass density=585.7 kg/m3	123.95 J/K/mol
345 K, Mass density=585.8 kg/m3	131.35 J/K/mol
345 K, Mass density=688.7 kg/m3	126.83 J/K/mol
345 K, Mass density=883 kg/m3	111.02 J/K/mol
345 K, Mass density=975.3 kg/m3	107.26 J/K/mol
345 K, Mass density=1076.9 kg/m3	105.11 J/K/mol and 104.72 J/K/mol
346 K, Mass density=403.2 kg/m3	120.08 J/K/mol
346 K, Mass density=502.9 kg/m3	120.15 J/K/mol
346 K, Mass density=585.7 kg/m3	120.32 J/K/mol
346 K, Mass density=585.8 kg/m3	127.65 J/K/mol
346 K, Mass density=688.7 kg/m3	123.21 J/K/mol
346 K, Mass density=774.1 kg/m3	115.2 J/K/mol
346 K, Mass density=883 kg/m3	110.89 J/K/mol
346 K, Mass density=975.3 kg/m3	107.47 J/K/mol and 107.62 J/K/mol
346 K, Mass density=1076.8 kg/m3	105.53 J/K/mol and 105.08 J/K/mol
347 K, Mass density=403.2 kg/m3	117.75 J/K/mol
347 K, Mass density=503 kg/m3	115.93 J/K/mol
347 K, Mass density=585.7 kg/m3	117.72 J/K/mol
347 K, Mass density=585.8 kg/m3	123.89 J/K/mol
347 K, Mass density=688.7 kg/m3	119.23 J/K/mol
347 K, Mass density=774.1 kg/m3	114.9 J/K/mol
347 K, Mass density=882.9 kg/m3	110.19 J/K/mol
347 K, Mass density=975.2 kg/m3	105.52 J/K/mol and 107.28 J/K/mol
347 K, Mass density=1076.7 kg/m3	105.04 J/K/mol and 104.54 J/K/mol
348 K, Mass density=403.3 kg/m3	116.59 J/K/mol
348 K, Mass density=503 kg/m3	118.49 J/K/mol
348 K, Mass density=585.7 kg/m3	124.85 J/K/mol and 118.08 J/K/mol
348 K, Mass density=688.7 kg/m3	117.7 J/K/mol
348 K, Mass density=774 kg/m3	114.62 J/K/mol
348 K, Mass density=882.8 kg/m3	109.75 J/K/mol
348 K, Mass density=975.1 kg/m3	106.21 J/K/mol and 107.41 J/K/mol
348 K, Mass density=1076.6 kg/m3	104.59 J/K/mol and 104.74 J/K/mol
349 K, Mass density=403.3 kg/m3	115.69 J/K/mol
349 K, Mass density=503 kg/m3	119.76 J/K/mol
349 K, Mass density=585.7 kg/m3	123.44 J/K/mol and 117.14 J/K/mol
349 K, Mass density=688.6 kg/m3	119.03 J/K/mol
349 K, Mass density=774 kg/m3	115.4 J/K/mol
349 K, Mass density=882.8 kg/m3	110.59 J/K/mol
349 K, Mass density=975 kg/m3	107.41 J/K/mol and 108.49 J/K/mol
349 K, Mass density=1076.6 kg/m3	105.38 J/K/mol and 105.95 J/K/mol
350 K, Mass density=403.4 kg/m3	113.67 J/K/mol
350 K, Mass density=503 kg/m3	116.82 J/K/mol
